Data taken from the supplement of paper PMC10307832.

Assays:
Assay in all cases: relative viability (nuclei count vs DMSO), 5 days (fraction); higher = more cells survive
Dovitinib + OSI-027 = compound: CN1CCN(c2ccc3nc(-c4c(N)c5c(F)cccc5[nH]c4=O)[nH]c3c2)CC1 [Dovitinib] + COc1cccc2cc(-c3nc([C@H]4CC[C@H](C(=O)O)CC4)n4ncnc(N)c34)[nH]c12 [OSI-027] (partner 0.5 µM)
In short: (§1)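 Lung cancer cell lines were seeded in 1536-well plates and dosed by pin tool the next day, with either a single drug or a fixed anchor-drug dose combined with five library-drug doses (not always all listed) spaced in √10 steps. Five days later, one step fixed the cells and stained their nuclei (final 0.05% Triton X-100, 1% formaldehyde, 1 ug/ml Hoechst), and nuclei were counted on 4× images. Relative viability is the nuclei count in treated wells divided by the count in vehicle wells, and each value is the median of duplicate plates.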

Dovitinib + Lapatinib = compound: CN1CCN(c2ccc3nc(-c4c(N)c5c(F)cccc5[nH]c4=O)[nH]c3c2)CC1 [Dovitinib] + CS(=O)(=O)CCNCc1ccc(-c2ccc3ncnc(Nc4ccc(OCc5cccc(F)c5)c(Cl)c4)c3c2)o1 [Lapatinib] (partner 2 µM)
In short: as §1

Dovitinib + Linsitinib = compound: CN1CCN(c2ccc3nc(-c4c(N)c5c(F)cccc5[nH]c4=O)[nH]c3c2)CC1 [Dovitinib] + C[C@]1(O)C[C@@H](c2nc(-c3ccc4ccc(-c5ccccc5)nc4c3)c3c(N)nccn32)C1 [Linsitinib] (partner 1 µM)
In short: as §1

Dovitinib + Alpelisib = compound: CN1CCN(c2ccc3nc(-c4c(N)c5c(F)cccc5[nH]c4=O)[nH]c3c2)CC1 [Dovitinib] + Cc1nc(NC(=O)N2CCC[C@H]2C(N)=O)sc1-c1ccnc(C(C)(C)C(F)(F)F)c1 [Alpelisib] (partner 2 µM)
In short: as §1

Cell Line	relative viability (Dovitinib + OSI-027; first compound 0.02 µM)	relative viability (Dovitinib + OSI-027; first compound 0.06325 µM)	relative viability (Dovitinib + OSI-027; first compound 0.2 µM)	relative viability (Dovitinib + OSI-027; first compound 0.6325 µM)	relative viability (Dovitinib + OSI-027; first compound 2 µM)	relative viability (Dovitinib + Lapatinib; first compound 0.02 µM)	relative viability (Dovitinib + Lapatinib; first compound 0.06325 µM)	relative viability (Dovitinib + Lapatinib; first compound 0.2 µM)	relative viability (Dovitinib + Lapatinib; first compound 0.6325 µM)	relative viability (Dovitinib + Lapatinib; first compound 2 µM)	relative viability (Dovitinib + Linsitinib; first compound 0.02 µM)	relative viability (Dovitinib + Linsitinib; first compound 0.06325 µM)	relative viability (Dovitinib + Linsitinib; first compound 0.2 µM)	relative viability (Dovitinib + Linsitinib; first compound 0.6325 µM)	relative viability (Dovitinib + Linsitinib; first compound 2 µM)	relative viability (Dovitinib + Alpelisib; first compound 0.02 µM)	relative viability (Dovitinib + Alpelisib; first compound 0.06325 µM)	relative viability (Dovitinib + Alpelisib; first compound 0.2 µM)	relative viability (Dovitinib + Alpelisib; first compound 0.6325 µM)	relative viability (Dovitinib + Alpelisib; first compound 2 µM)
NCI-H1666	0.931	0.882	0.838	0.875	0.909	0.657	0.627	0.667	0.596	0.69	0.793	0.687	0.859	0.764	0.896	1.01	0.933	1.02	0.883	1.07
NCI-H1734	0.655	0.632	0.687	0.575	0.55	1.11	1.02	1.05	1.09	0.503	0.961	0.862	0.843	0.902	0.833	0.711	0.697	0.675	0.626	0.641
NCI-H1755	0.744	0.732	0.759	0.714	0.712	1.08	1.07	1.02	1.05	0.976	0.968	0.976	0.94	1.01	0.998	0.951	0.916	0.923	0.903	0.878
NCI-H1792	0.79	0.641	0.762	0.755	0.61	0.852	0.892	0.952	1.06	0.855	0.621	0.44	0.602	0.598	0.522	0.674	0.617	0.745	0.725	0.676
NCI-H1793	0.304	0.269	0.313	0.332	0.302	0.875	0.658	0.684	0.657	0.631	0.964	0.679	0.856	0.754	0.834	0.928	0.601	0.88	0.831	0.623
NCI-H1915	0.559	0.635	0.621	0.602	0.647	0.87	0.955	0.971	0.944	1.02	1.09	1.09	1.08	1.09	1.05	0.992	1.04	1.06	0.983	1.04
NCI-H1944	0.426	0.383	0.398	0.39	0.431	0.84	0.809	0.893	0.7	0.818	1.14	1.18	1.15	1.22	1.18	0.822	0.846	0.809	0.777	0.858
NCI-H1975	0.749	0.735	0.732	0.664	0.666	0.899	0.979	0.917	0.89	0.907	0.903	0.954	0.915	0.934	1.09	0.625	0.685	0.603	0.604	0.547
